What was measured:
Assay in all cases: Weeding effect in post-emergence stage
Assay type in all cases: in vivo
Details in all cases: active ingredient 2000 g/ha, 3 weeks after application, fresh weight control rate
Abutilon theophrasti = test system: Abutilon theophrasti
Procedure, shortened: (§1)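 Weeds sown in soil-filled pots under 0.5-2 cm cover were grown in a greenhouse and sprayed at the 2-3 leaf stage, 2 weeks after sowing. Compounds in acetone with Tween 80 and 1.5 liter/ha methyl oleate concentrate were applied at 2000, 1000, 500, 250 or 125 g/ha. Fresh weight control rate was scored after 3 weeks.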

Descurainia sophia = test system: Descurainia sophia
Procedure, shortened: as §1

Chenopodium album = test system: Chenopodium album
Procedure, shortened: as §1

[1] = test system: Amaranthus retroflexus L.
Procedure, shortened: as §1

SMILES | Weeding effect, activity level (growth control rate), Abutilon theophrasti (Abutilon theophrasti) | Weeding effect, activity level (growth control rate), Descurainia sophia (Descurainia sophia) | Weeding effect, activity level (growth control rate), Chenopodium album (Chenopodium album) | Weeding effect, activity level (growth control rate), Amaranthus retroflexus L. [1]
Cn1nnnc1NC(=O)c1ccnc(-c2ccc(F)c(F)c2)c1Cl [Compound 1-66] | 5 (Level 5: growth control rate is above 85%) | 5 (Level 5: growth control rate is above 85%) | 5 (Level 5: growth control rate is above 85%) | 5 (Level 5: growth control rate is above 85%)
Cc1ccc(F)c(-c2nccc(C(=O)Nc3nnnn3C)c2Cl)c1 [Compound 1-67] | 5 (Level 5: growth control rate is above 85%) | 5 (Level 5: growth control rate is above 85%) | 5 (Level 5: growth control rate is above 85%) | 5 (Level 5: growth control rate is above 85%)
Cc1ccc(-c2nccc(C(=O)Nc3nnnn3C)c2Cl)cc1F [Compound 1-68] | 5 (Level 5: growth control rate is above 85%) | 5 (Level 5: growth control rate is above 85%) | 5 (Level 5: growth control rate is above 85%) | 5 (Level 5: growth control rate is above 85%)
Cc1ccc(-c2nccc(C(=O)Nc3nnnn3C)c2Cl)c(F)c1 [Compound 1-69] | 5 (Level 5: growth control rate is above 85%) | 5 (Level 5: growth control rate is above 85%) | 5 (Level 5: growth control rate is above 85%) | 5 (Level 5: growth control rate is above 85%)
COc1cccc(F)c1-c1nccc(C(=O)Nc2nnnn2C)c1Cl [Compound 1-70] | 5 (Level 5: growth control rate is above 85%) | 5 (Level 5: growth control rate is above 85%) | 5 (Level 5: growth control rate is above 85%) | 5 (Level 5: growth control rate is above 85%)
COc1cc(F)cc(-c2nccc(C(=O)Nc3nnnn3C)c2Cl)c1 [Compound 1-71] | 5 (Level 5: growth control rate is above 85%) | 5 (Level 5: growth control rate is above 85%) | 5 (Level 5: growth control rate is above 85%) | 5 (Level 5: growth control rate is above 85%)
COc1cccc(-c2nccc(C(=O)Nc3nnnn3C)c2Cl)c1F [Compound 1-72] | 5 (Level 5: growth control rate is above 85%) | 5 (Level 5: growth control rate is above 85%) | 5 (Level 5: growth control rate is above 85%) | 5 (Level 5: growth control rate is above 85%)
Cn1nnnc1NC(=O)c1ccnc(-c2ccc(F)cc2C(F)(F)F)c1Cl [Compound 1-73] | 5 (Level 5: growth control rate is above 85%) | 5 (Level 5: growth control rate is above 85%) | 5 (Level 5: growth control rate is above 85%) | 5 (Level 5: growth control rate is above 85%)
Cn1nnnc1NC(=O)c1ccnc(-c2ccc(C(F)(F)F)cc2F)c1Cl [Compound 1-74] | 5 (Level 5: growth control rate is above 85%) | 5 (Level 5: growth control rate is above 85%) | 5 (Level 5: growth control rate is above 85%) | 5 (Level 5: growth control rate is above 85%)
Cn1nnnc1NC(=O)c1ccnc(-c2cc(C(F)(F)F)ccc2F)c1Cl [Compound 1-75] | 5 (Level 5: growth control rate is above 85%) | 5 (Level 5: growth control rate is above 85%) | 5 (Level 5: growth control rate is above 85%) | 5 (Level 5: growth control rate is above 85%)
Cn1nnnc1NC(=O)c1ccnc(-c2ccc(C(F)(F)F)cc2C(F)(F)F)c1Cl [Compound 1-76] | 5 (Level 5: growth control rate is above 85%) | 5 (Level 5: growth control rate is above 85%) | 5 (Level 5: growth control rate is above 85%) | 5 (Level 5: growth control rate is above 85%)
Cn1nnnc1NC(=O)c1ccnc(-c2cc(C(F)(F)F)cc(C(F)(F)F)c2)c1Cl [Compound 1-77] | 5 (Level 5: growth control rate is above 85%) | 5 (Level 5: growth control rate is above 85%) | 5 (Level 5: growth control rate is above 85%) | 5 (Level 5: growth control rate is above 85%)
Cn1nnnc1NC(=O)c1ccnc(-c2ccc(C#N)cc2F)c1Cl [Compound 1-78] | 5 (Level 5: growth control rate is above 85%) | 5 (Level 5: growth control rate is above 85%) | 5 (Level 5: growth control rate is above 85%) | 5 (Level 5: growth control rate is above 85%)
Cn1nnnc1NC(=O)c1ccnc(-c2ccc(C#N)c(F)c2)c1Cl [Compound 1-79] | 5 (Level 5: growth control rate is above 85%) | 5 (Level 5: growth control rate is above 85%) | 5 (Level 5: growth control rate is above 85%) | 5 (Level 5: growth control rate is above 85%)
Cn1nnnc1NC(=O)c1ccnc(-c2cccc(C#N)c2F)c1Cl [Compound 1-80] | 5 (Level 5: growth control rate is above 85%) | 5 (Level 5: growth control rate is above 85%) | 5 (Level 5: growth control rate is above 85%) | 5 (Level 5: growth control rate is above 85%)
Cn1nnnc1NC(=O)c1ccnc(-c2cc(F)cc(C#N)c2)c1Cl [Compound 1-81] | 5 (Level 5: growth control rate is above 85%) | 5 (Level 5: growth control rate is above 85%) | 5 (Level 5: growth control rate is above 85%) | 5 (Level 5: growth control rate is above 85%)
Cn1nnnc1NC(=O)c1ccnc(-c2cc(C#N)ccc2F)c1Cl [Compound 1-82] | 5 (Level 5: growth control rate is above 85%) | 5 (Level 5: growth control rate is above 85%) | 5 (Level 5: growth control rate is above 85%) | 5 (Level 5: growth control rate is above 85%)
Cn1nnnc1NC(=O)c1ccnc(-c2ccc(F)cc2C#N)c1Cl [Compound 1-83] | 5 (Level 5: growth control rate is above 85%) | 5 (Level 5: growth control rate is above 85%) | 5 (Level 5: growth control rate is above 85%) | 5 (Level 5: growth control rate is above 85%)
Cn1nnnc1NC(=O)c1ccnc(-c2ccc(F)c(C#N)c2)c1Cl [Compound 1-84] | 5 (Level 5: growth control rate is above 85%) | 5 (Level 5: growth control rate is above 85%) | 5 (Level 5: growth control rate is above 85%) | 5 (Level 5: growth control rate is above 85%)
Cn1nnnc1NC(=O)c1ccnc(-c2ccc(F)c(C(F)(F)F)c2)c1Cl [Compound 1-85] | 5 (Level 5: growth control rate is above 85%) | 5 (Level 5: growth control rate is above 85%) | 5 (Level 5: growth control rate is above 85%) | 5 (Level 5: growth control rate is above 85%)
Cn1nnnc1NC(=O)c1ccnc(-c2ccc(Cl)cc2Cl)c1Cl [Compound 1-86] | 5 (Level 5: growth control rate is above 85%) | 5 (Level 5: growth control rate is above 85%) | 5 (Level 5: growth control rate is above 85%) | 5 (Level 5: growth control rate is above 85%)

From patent publication US12497365B2, “4-pyridinyl formamide compound or derivative thereof, preparation method therefor, herbicidal composition and use thereof” (Qingdao Kingagroot Chemical Compound Co., Ltd., priority 2019, dated 2025)
